Laboratory results: US9458092B2, “α-Substituted glycinamide derivative” (KISSEI PHARMACEUTICAL CO., LTD., priority 2013, dated 2016)

Legend:
TRPM8 = TRPM8 (Rattus norvegicus, UniProt Q8R455); assay: Confirmation test of inhibitory effects on icilin-induced wet-dog shakes; type: in vivo, female SD rats; design: test compounds were orally administered to female SD rats; from tissue; host or cells: whole animal (female SD rats), endogenous channel; details: icilin 1 mg/kg i.p. after 1 hour, shakes counted for 5 minutes
Sequence of TRPM8 (Q8R455 whole entry): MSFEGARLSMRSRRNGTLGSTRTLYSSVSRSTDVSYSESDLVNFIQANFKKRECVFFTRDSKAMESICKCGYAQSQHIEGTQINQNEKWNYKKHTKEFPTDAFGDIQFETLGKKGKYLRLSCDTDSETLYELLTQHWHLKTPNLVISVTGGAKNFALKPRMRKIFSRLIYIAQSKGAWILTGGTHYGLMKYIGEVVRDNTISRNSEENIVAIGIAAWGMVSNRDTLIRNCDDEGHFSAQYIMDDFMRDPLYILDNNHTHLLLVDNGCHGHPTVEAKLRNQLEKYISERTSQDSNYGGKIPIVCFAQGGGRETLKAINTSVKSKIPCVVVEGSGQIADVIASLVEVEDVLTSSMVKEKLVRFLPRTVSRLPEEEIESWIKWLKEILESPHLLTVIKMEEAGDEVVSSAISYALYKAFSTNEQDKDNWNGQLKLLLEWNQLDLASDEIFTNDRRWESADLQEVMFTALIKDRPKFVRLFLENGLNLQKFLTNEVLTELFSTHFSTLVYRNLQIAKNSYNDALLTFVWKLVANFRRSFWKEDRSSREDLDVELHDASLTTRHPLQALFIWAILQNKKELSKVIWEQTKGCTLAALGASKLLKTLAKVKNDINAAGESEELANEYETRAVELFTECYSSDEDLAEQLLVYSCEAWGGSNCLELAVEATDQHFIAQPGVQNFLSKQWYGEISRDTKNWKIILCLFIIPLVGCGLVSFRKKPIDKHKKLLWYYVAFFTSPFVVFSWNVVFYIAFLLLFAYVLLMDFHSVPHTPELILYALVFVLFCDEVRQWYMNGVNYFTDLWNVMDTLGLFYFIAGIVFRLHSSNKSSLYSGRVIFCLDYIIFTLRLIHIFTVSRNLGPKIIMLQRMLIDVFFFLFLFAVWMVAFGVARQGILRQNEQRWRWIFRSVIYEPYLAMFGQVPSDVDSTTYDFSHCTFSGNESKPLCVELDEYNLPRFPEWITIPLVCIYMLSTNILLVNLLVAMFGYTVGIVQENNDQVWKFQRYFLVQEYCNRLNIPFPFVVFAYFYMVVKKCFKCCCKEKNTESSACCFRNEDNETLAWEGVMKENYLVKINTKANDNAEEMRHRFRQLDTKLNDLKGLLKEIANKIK
Procedure: Test compounds were dissolved in dimethylacetamide (wako), and 0.5% methylcellulose solution (wako) was added to make the solution or suspension containing 5% of dimethylacetamide. At a dose of 3 or 10 mg/kg/5 mL of test compounds were orally administered to female SD rats. After 1 hour, wet-dog shakes were induced by the intrapenitoneal injection of icilin (1 mg/kg) which was dissolved in polyethylene glycol 400 (wako). From 5 minutes after the administration of icilin, wet-dog shakes were counted for 5 minutes. For control example, vehicle (a mixture of dimethylacetamide (wako): 0.5% methylcellulose (wako)=5:95) was administrated similarly, and the number of wet-dog shakes was counted in the same manner. A percent inhibition of wet-dog shakes by test compound was calculated from the following formula: [1-(test compound wet-dog shake count/vehicle wet-dog shake count)]×100.

[1] = tested on: overactive bladder induced by acetic acid; assay: Confirmation test of elongation action of micturition interval of overactive bladder induced by acetic acid; type: in vivo, female SD rats; details: Rattus norvegicus, iv, interval before administration = 100%
Procedure: Urethane (sigma) was dissolved into pure water by 25% w/v, and female SD rats were anesthetized with 1.25 g/kg urethane by subcutaneous administration. Cannulae were placed in femoral vein and bladder, and the bladder cannula was connected to both a syringe pump and a pressure transducer. Detrusor overactivity was induced by intravesical infusion of 0.25% acetic acid in saline at a rate of 3.6 mL/h, and intravesical pressure was monitored via pressure transducer concurrently. Test compounds were dissolved into a mixture of dimethylacetamide and saline (20:80), and were administered via the femoral vein. When an average of the three micturition interval before administration was taken as 100%, an average of the three micturition interval after administration was calculated as Elongation of micturition interval (%) Dose and results are shown in tables 46 and 47.

[2] = 1 mg/kg/ml via the femoral vein
[3] = 1 mg/kg/2 ml via the femoral vein

| Compound | % inhibition of Wet-Dog Shake (TRPM8; dose 10 mg/kg orally) [%] | % inhibition of Wet-Dog Shake (TRPM8; dose 3 mg/kg orally) [%] | also measured |
| --- | --- | --- | --- |
| NC(=O)[C@@H](c1ccccc1)N(C(=O)c1cccnc1)[C@@H]1CCc2c(F)cc(F)cc21 [Example 1-1, N-[(R)-Carbamoylphenylmethyl]-N-[(R)-4,6-difluoroindan-1-yl]nicotinamide] | 95 | – | response vs control in vivo at 1 mg/kg [1, 2]: 209% |
| NC(=O)[C@@H](c1ccccc1)N(C(=O)c1cccnc1N)[C@@H]1CCc2c(F)cc(F)cc21 [Example 1-3, 2-Amino-N-[(R)-carbamoylphenylmethyl]-N-[(R)-4,6-difluoroindan-1-yl]nicotinamide] | – | 69 | response vs control in vivo at 1 mg/kg [1, 2]: 200% |
| NC(=O)[C@@H](c1ccccc1)N(C(=O)c1ccccc1)[C@@H]1CCc2ccc(Cl)cc21 [Example 2-2LP, N-[(R)-Carbamoylphenylmethyl]-N-[(R)-6-chloroindan-1-yl]benzamide] | 100 | – | response vs control in vivo at 1 mg/kg [1, 3]: 221% |
| COc1ccc2c(c1)[C@H](N(C(=O)c1ccccc1)[C@@H](C(N)=O)c1ccccc1)CC2 [Example 2-4LP, N-[(R)-Carbamoylphenylmethyl]-N-[(R)-6-methoxyindan-1-yl]benzamide] | 79 | – | response vs control in vivo at 1 mg/kg [1, 3]: 156% |
| NC(=O)[C@@H](c1ccccc1)N(C(=O)c1ccccc1)[C@@H]1CCc2ccc(C3CC3)cc21 [Example 2-5LP, N-[(R)-carbamoylphenylmethyl]-N-[(R)-6-cyclopropylindan-1-yl]benzamide] | 89 | – | response vs control in vivo at 1 mg/kg [1, 3]: 177% |
| NC(=O)[C@@H](c1ccccc1)N(C(=O)c1ccccc1)[C@@H]1CCc2c(F)cc(Cl)cc21 [Example 2-6LP, N-[(R)-carbamoylphenylmethyl]-N-[(R)-6-chloro-4-fluoroindan-1-yl]benzamide] | – | 69 | response vs control in vivo at 0.3 mg/kg ([1]; 0.3 mg/kg/ml via the femoral vein): 184% |
| NC(=O)[C@@H](c1ccccc1)N(C(=O)c1cccnc1)[C@@H]1CCc2c(F)cc(Cl)cc21 [Example 2-23LP, N-[(R)-carbamoylphenylmethyl]-N-[(R)-6-chloro-4-fluoroindan-1-yl]nicotinamide] | – | 56 | response vs control in vivo at 1 mg/kg [1, 2]: 205% |
| NC(=O)[C@@H](c1ccccc1)N(C(=O)c1cccnc1)[C@@H]1CCc2ccc(Cl)cc21 [Example 2-31LP, N-[(R)-carbamoylphenylmethyl]-N-[(R)-6-chloroindan-1-yl]nicotinamide] | 87 | – | response vs control in vivo at 1 mg/kg [1, 2]: 176% |
| Cc1nccnc1C(=O)N([C@@H]1CCc2c(F)cc(Cl)cc21)[C@@H](C(N)=O)c1ccccc1 [Example 2-175LP, N-[(R)-carbamoylphenylmethyl]-N-[(R)-6-chloro-4-fluoroindan-1-yl]-3-methylpyrazine-2-carboxamide] | – | 40 | – |
| NC(=O)[C@@H](c1ccccc1)N(C(=O)c1cnccn1)[C@@H]1CCc2c(F)cc(Cl)cc21 [Example 2-179LP, N-[(R)-carbamoylphenylmethyl]-N-[(R)-6-chloro-4-fluoroindan-1-yl]pyrazine-2-carboxamide] | – | 32 | – |
| COc1ncccc1C(=O)N([C@@H]1CCc2c(F)cc(Cl)cc21)[C@@H](C(N)=O)c1cccnc1 [Example 2-180LP, N-[(R)-carbamoylpyridin-3-ylmethyl]-N-[(R)-6-chloro-4-fluoroindan-1-yl]-2-methoxynicotinamide] | – | 32 | – |
| N#Cc1ccc2c(c1)[C@H](N(C(=O)c1ccccc1O)[C@@H](C(N)=O)c1ccccc1)CC2 [Example 3-2, N-[(R)-carbamoylphenylmethyl]-N-[(R)-6-cyanoindan-1-yl]-2-hydroxybenzamide] | 73 | – | – |
| NC(=O)[C@@H](c1ccccc1)N(C(=O)c1ccccc1O)[C@@H]1COc2ccc(Cl)cc21 [Example 4-2, N-[(R)-carbamoylphenylmethyl]-N-[(S)-5-chloro-2,3-dihydrobenzofuran-3-yl]-2-hydroxybenzamide] | 86 | – | – |
| NC(=O)[C@@H](c1cccnc1)N(C(=O)c1ccccc1O)[C@@H]1CCc2c(F)cc(Cl)cc21 [Example 4-5, N-[(R)-carbamoylpyridin-3-ylmethyl]-N-[(R)-6-chloro-4-fluoroindan-1-yl]-2-hydroxybenzamide] | – | 76 | – |
| NC(=O)[C@@H](c1cnccn1)N(C(=O)c1ccccc1O)[C@@H]1CCc2c(F)cc(Cl)cc21 [Example 4-8, N-[(R)-carbamoylpyrazin-2-ylmethyl]-N-[(R)-6-chloro-4-fluoroindan-1-yl]-2-hydroxybenzamide] | – | 37 | – |
| Cc1cccc(C(=O)N([C@@H]2CCc3c(F)cc(Cl)cc32)[C@@H](C(N)=O)c2ccccc2)c1O [Example 4-9, N-[(R)-carbamoylphenylmethyl]-N-[(R)-6-chloro-4-fluoroindan-1-yl]-2-hydroxy-3-methylbenzamide] | – | 36 | – |
| Cc1ncccc1C(=O)N([C@@H]1CCc2c(F)cc(Cl)cc21)[C@@H](C(N)=O)c1cccc(N(C)C)c1 [Example 18-13LP, N-[(R)-carbamoyl-(3-dimethylaminophenyl)methyl]-N-[(R)-6-chloro-4-fluoroindan-1-yl]-2-methylnicotinamide] | 86 | – | – |
| NC(=O)[C@@H](c1cccnc1)N(C(=O)c1ccccc1O)[C@@H]1CCc2c(F)cc(Cl)cc21 [Example 19-1LP, N-[(R)-carbamoylpyridin-3-ylmethyl]-N-[(R)-6-chloro-4-fluoroindan-1-yl]-2-hydroxybenzamide] | – | – | response vs control in vivo at 1 mg/kg [1, 2]: 178% |
| CN(C)c1cccc([C@H](C(N)=O)N(C(=O)c2ccccc2O)[C@@H]2CCc3c(F)cc(Cl)cc32)c1 [Example 19-6LP, N-[(R)-carbamoyl-(3-dimethylaminophenyl)methyl]-N-[(R)-6-chloro-4-fluoroindan-1-yl]-2-hydroxybenzamide] | 99 | – | – |
| Cc1ccc(C(=O)N([C@@H]2CCc3c(F)cc(Cl)cc32)[C@@H](C(N)=O)c2cccnc2)c(O)c1 [Example 19-12LP, N-[(R)-carbamoylpyridin-3-ylmethyl]-N-[(R)-6-chloro-4-fluoroindan-1-yl]-2-hydroxy-4-methylbenzamide] | 82 | – | – |
| NC(=O)[C@@H](c1cccnc1)N(C(=O)c1c(O)cccc1F)[C@@H]1CCc2c(F)cc(Cl)cc21 [Example 19-15LP, N-[(R)-carbamoylpyridin-3-ylmethyl]-N-[(R)-6-chloro-4-fluoroindan-1-yl]-2-fluoro-6-hydroxybenzamide] | 72 | – | – |
| NC(=O)[C@@H](c1cccnc1)N(C(=O)c1ccc(F)cc1O)[C@@H]1CCc2c(F)cc(Cl)cc21 [Example 19-16LP, N-[(R)-carbamoylpyridin-3-ylmethyl]-N-[(R)-6-chloro-4-fluoroindan-1-yl]-4-fluoro-2-hydroxybenzamide] | 63 | – | – |
| NC(=O)[C@@H](c1cccnc1)N(C(=O)c1ccc(Cl)cc1O)[C@@H]1CCc2c(F)cc(Cl)cc21 [Example 19-17LP, N-[(R)-carbamoylpyridin-3-ylmethyl]-4-chloro-N-[(R)-6-chloro-4-fluoroindan-1-yl]-2-hydroxybenzamide] | 66 | – | – |
| NC(=O)[C@@H](c1cccnc1)N(C(=O)c1cccc(F)c1O)[C@@H]1CCc2c(F)cc(Cl)cc21 [Example 19-25LP, N-[(R)-carbamoylpyridin-3-ylmethyl]-N-[(R)-6-chloro-4-fluoroindan-1-yl]-3-fluoro-2-hydroxybenzamide] | 86 | – | – |
| NC(=O)[C@@H](c1cncc(F)c1)N(C(=O)c1ccccc1O)[C@@H]1CCc2c(F)cc(Cl)cc21 [Example 19-31LP, N-[(R)-Carbamoyl(5-fluoropyridin-3-yl)methyl]-N-[(R)-6-chloro-4-fluoroindan-1-yl]-2-hydroxybenzamide] | – | 71 | – |
| Cc1cccc(C(=O)N([C@@H]2CCc3c(F)cc(Cl)cc32)[C@@H](C(N)=O)c2cccnc2)c1O [Example 19-41LP, N-[(R)-Carbamoylpyridin-3-ylmethyl]-N-[(R)-6-chloro-4-fluoroindan-1-yl]-2-hydroxy-3-methylbenzamide] | 92 | – | – |
| Cc1ncccc1C(=O)N([C@@H]1CCc2c(F)cc(Cl)cc21)[C@@H](C(N)=O)c1cccc(N)c1 [Example 21-1, N-[(R)-(3-Aminophenyl)carbamoylmethyl]-N-[(R)-6-chloro-4-fluoroindan-1-yl]-2-methylnicotinamide] | 99 | – | – |
| NC(=O)[C@@H](c1cccc(N)c1)N(C(=O)c1ccccc1O)[C@@H]1CCc2c(F)cc(Cl)cc21 [Example 21-2, N-[(R)-(3-Aminophenyl)carbamoylmethyl]-N-[(R)-6-chloro-4-fluoroindan-1-yl]-2-hydroxybenzamide] | 94 | – | – |
